Entries after “also recorded” stand apart in the source; their conditions may differ.
Tests used:
hNNMT [1] = target: T1, hNNMT (Homo sapiens, UniProt P40261); experiment: SAHH-coupled fluorescent assay of NNMT methyltransferase activity; assay type: biochemical
T1 sequence (P40261 1-264): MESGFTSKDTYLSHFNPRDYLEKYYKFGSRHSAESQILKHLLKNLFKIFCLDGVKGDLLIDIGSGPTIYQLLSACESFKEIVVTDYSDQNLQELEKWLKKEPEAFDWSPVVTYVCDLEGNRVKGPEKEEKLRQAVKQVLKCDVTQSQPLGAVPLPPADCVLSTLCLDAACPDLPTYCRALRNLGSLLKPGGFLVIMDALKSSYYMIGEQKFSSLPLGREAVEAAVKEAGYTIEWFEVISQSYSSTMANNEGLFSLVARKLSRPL

hNNMT [2] = target: T1, hNNMT; experiment: Isothermal titration calorimetry; assay type: binding
DOT1L = DOT1L (Homo sapiens, UniProt Q8TEK3); experiment: Selectivity assay, filter-based 3H-SAM methyltransferase assay; assay type: biochemical
PRMT7 = target: T2, PRMT7 (Homo sapiens, UniProt Q9NVM4); experiment: Selectivity assay, scintillation proximity assay; assay type: biochemical
T2 sequence (Q9NVM4 1-692): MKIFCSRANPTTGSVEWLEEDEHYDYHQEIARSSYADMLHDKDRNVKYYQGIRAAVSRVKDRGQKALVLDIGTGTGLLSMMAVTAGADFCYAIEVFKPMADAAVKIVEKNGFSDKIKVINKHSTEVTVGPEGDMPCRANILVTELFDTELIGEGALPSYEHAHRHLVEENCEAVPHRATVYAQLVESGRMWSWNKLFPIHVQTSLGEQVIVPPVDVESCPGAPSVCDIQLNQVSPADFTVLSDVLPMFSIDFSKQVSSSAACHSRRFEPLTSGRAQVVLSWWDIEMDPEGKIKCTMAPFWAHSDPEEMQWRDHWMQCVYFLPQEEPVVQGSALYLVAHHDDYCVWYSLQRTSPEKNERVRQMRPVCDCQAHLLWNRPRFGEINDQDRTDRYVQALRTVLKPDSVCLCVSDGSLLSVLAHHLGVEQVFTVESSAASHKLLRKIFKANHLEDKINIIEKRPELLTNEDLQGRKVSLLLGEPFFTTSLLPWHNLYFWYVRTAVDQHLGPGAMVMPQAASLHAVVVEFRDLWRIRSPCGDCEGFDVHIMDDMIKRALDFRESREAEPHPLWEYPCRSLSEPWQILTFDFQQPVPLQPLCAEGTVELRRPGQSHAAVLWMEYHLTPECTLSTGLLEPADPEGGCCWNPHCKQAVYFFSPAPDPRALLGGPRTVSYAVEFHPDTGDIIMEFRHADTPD

BCDIN3D = target: T3, BCDIN3D (Homo sapiens, UniProt Q7Z5W3); experiment: Selectivity assay, scintillation proximity assay; assay type: biochemical
T3 sequence (Q7Z5W3 1-292): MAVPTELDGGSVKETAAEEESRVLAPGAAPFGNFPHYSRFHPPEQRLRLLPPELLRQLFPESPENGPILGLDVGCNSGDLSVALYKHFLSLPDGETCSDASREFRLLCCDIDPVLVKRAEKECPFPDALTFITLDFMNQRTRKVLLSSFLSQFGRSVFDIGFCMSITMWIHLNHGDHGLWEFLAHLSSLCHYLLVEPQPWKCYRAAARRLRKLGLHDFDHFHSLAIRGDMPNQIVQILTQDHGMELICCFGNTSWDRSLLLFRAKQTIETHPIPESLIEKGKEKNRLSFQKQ

SMYD2 = SMYD2 (Homo sapiens, UniProt Q9NRG4); experiment: Selectivity assay, scintillation proximity assay; assay type: biochemical
[3] = substrate: NC(=O)c1cccnc1; experiment: purified protein, by the assay type; conditions: other: SAHH-coupled assay; kcat 4.1 ± 0.2 min^-1; pH 7.5

Sequence of SMYD2 (Q9NRG4 whole entry, species assumed): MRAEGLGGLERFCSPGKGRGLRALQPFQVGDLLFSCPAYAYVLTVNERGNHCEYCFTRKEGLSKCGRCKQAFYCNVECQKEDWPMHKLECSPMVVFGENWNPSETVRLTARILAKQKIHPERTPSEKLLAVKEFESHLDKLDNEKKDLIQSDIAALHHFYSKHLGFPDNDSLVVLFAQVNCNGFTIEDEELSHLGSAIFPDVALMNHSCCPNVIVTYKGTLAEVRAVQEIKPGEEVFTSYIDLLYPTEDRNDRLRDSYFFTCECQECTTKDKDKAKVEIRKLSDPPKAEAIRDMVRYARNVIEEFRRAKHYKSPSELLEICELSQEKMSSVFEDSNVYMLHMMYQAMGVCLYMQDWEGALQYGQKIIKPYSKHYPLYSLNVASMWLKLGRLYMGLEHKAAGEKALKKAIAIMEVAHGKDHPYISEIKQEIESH
Sequence of DOT1L (Q8TEK3 whole entry, species assumed): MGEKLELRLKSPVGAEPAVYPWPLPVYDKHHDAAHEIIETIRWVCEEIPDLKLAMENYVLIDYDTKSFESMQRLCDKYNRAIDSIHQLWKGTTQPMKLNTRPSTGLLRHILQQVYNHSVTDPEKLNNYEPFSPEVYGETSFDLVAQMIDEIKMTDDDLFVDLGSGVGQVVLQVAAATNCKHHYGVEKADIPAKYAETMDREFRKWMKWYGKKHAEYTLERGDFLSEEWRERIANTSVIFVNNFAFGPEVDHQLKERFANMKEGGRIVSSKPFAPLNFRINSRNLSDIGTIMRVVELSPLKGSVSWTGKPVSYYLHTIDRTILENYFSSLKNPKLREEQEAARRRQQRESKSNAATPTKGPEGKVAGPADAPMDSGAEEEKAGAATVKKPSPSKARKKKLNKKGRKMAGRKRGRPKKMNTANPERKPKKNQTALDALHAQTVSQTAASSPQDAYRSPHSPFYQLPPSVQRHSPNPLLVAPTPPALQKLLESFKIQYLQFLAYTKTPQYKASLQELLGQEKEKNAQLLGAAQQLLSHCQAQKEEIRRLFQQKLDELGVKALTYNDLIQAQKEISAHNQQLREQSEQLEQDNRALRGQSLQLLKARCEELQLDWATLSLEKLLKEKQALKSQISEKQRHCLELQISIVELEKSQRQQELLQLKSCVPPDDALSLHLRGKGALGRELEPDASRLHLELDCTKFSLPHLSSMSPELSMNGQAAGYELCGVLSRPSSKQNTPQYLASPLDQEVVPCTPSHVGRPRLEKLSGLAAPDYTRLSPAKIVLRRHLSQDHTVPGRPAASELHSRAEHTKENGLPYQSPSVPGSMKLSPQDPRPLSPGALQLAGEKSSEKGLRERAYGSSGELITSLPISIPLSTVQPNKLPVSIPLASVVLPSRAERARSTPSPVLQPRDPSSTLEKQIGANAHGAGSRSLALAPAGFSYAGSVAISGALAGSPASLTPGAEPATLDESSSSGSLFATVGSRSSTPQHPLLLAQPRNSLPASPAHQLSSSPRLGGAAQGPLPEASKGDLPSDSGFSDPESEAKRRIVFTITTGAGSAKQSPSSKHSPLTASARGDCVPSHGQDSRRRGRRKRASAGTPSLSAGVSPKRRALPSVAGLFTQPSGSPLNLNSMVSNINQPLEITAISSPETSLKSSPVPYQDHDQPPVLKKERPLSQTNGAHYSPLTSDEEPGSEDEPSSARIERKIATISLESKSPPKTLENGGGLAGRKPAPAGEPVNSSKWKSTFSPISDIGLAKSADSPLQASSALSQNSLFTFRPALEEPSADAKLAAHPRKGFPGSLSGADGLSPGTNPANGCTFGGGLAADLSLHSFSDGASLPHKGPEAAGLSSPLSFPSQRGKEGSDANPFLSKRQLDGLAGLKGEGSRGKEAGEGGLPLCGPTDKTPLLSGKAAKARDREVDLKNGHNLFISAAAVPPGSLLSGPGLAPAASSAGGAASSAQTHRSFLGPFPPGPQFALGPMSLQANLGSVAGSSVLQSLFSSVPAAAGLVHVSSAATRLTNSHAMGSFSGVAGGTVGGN

Molecule: C[S+](CC[C@H](N)C(=O)O)C[C@H]1O[C@@H](n2cnc3c(N)ncnc32)[C@H](O)[C@@H]1O (stereo partly drawn) [SAM, S-5′-adenosyl-L-methionine, reference compound]
- Km (hNNMT [1]; read-out: Km for NNMT): 24 ± 6.8 µM
- Kd (hNNMT [2]; read-out: Kd for binding to hNNMT (ITC), 25 °C, 50 mM Tris pH 8.0, 100 mM NaCl): 56.4 ± 9.5 µM

Molecule: NC(=O)c1cccnc1 [nicotinamide]
- Binding to hNNMT in ITC in the absence of the cofactor (hNNMT [2]; no cofactor): not observed

Molecule: NC(=O)c1cccc(CCN(CCC[C@H](N)C(=O)O)C[C@H]2O[C@@H](n3cnc4c(N)ncnc43)[C@H](O)[C@@H]2O)c1 [compound 6, (S)-2-Amino-5-((((2R,3S,4R,5R)-5-(6-amino-9H-purin-9-yl)-3,4-di-hydroxytetrahydrofuran-2-yl)methyl)(3-carbamoylphenethyl)-amino)pentanoic acid]
- Mechanism of inhibition with respect to cofactor SAM (hNNMT [1]; 200 μM nicotinamide, SAM varied 12.5 to 200 μM, Lineweaver-Burk): SAM competitive; also recorded: competitive inhibition
- Mechanism of inhibition with respect to substrate nicotinamide (hNNMT [1]; 250 μM SAM, nicotinamide varied 12.5 to 200 μM, Lineweaver-Burk): noncompetitive inhibition
- Hill slope, DOT1L (DOT1L): 1.1
- Hill slope, PRMT7 (PRMT7): 1.1
- Hill slope, BCDIN3D (BCDIN3D): 1.3
- Hill slope, SMYD2 (SMYD2): 0.6

B1: hNNMT (Homo sapiens) (protein)
chain: MESGFTSKDTYLSHFNPRDYLEKYYKFGSRHSAESQILKHLLKNLFKIFCLDGVKGDLLIDIGSGPTIYQLLSACESFKEIVVTDYSDQNLQELEKWLKKEPEAFDWSPVVTYVCDLEGNRVKGPEKEEKLRQAVKQVLKCDVTQSQPLGAVPLPPADCVLSTLCLDAACPDLPTYCRALRNLGSLLKPGGFLVIMDALKSSYYMIGEQKFSSLPLGREAVEAAVKEAGYTIEWFEVISQSYSSTMANNEGLFSLVARKLSRPL
- Km [3]: 20 ± 3 µM
